US10941384B2, “Compositions and methods for promoting the generation of endocrine cells” (President and Fellows of Harvard College, priority 2013, dated 2021)

What was measured:
[1] = tested on: Human NGN3 (HUES 8-pancreatic progenitor population); assay: High-content screen 1 and efficacy curve: NGN3+ cells by immunofluorescence (Cellomics); format: cell-based
Protocol: hESC culture and differentiation. Protocol 1. HUES 8 and H1 cells are routinely cultured on irradiated MEF feeder cells in KnockOut DMEM (Invitrogen) supplemented with 10% (v/v) KnockOut serum replacement (Invitrogen), 0.5% (v/v) human plasma fraction (Talecris Biotech), 2 mM L-glutamine (Invitrogen), 1.1 mM 2-mercaptoethanol (Invitrogen), 1 mM nonessential amino acids (Invitrogen), 1× penicillin/streptomycin (PS, Invitrogen) and 10 ng/ml bovine FGF (Invitrogen). Cells are passaged at the ratio of 1:6 every 5 d by using 0.05% trypsin (Invitrogen). To generate the HUES-pancreatic progenitor population, HUES cells were cultured on MEF feeder cells until 80-90% confluent, then treated with 25 ng/ml Wnt3a (R&D systems)+100 ng/ml activin A (R&D systems) in RPMI (Invitrogen) supplemented with 1×L-glutamine and 1×PS for 1 d, and then 100 ng/ml activin A in RPMI supplemented with 1×L-glutamine, 1×PS and 0.2% (v/v) fetal bovine serum (FBS, Invitrogen). The medium was changed 2 d later to 50 ng/ml/FGF7 (R&D systems) in RPMI supplemented with 1×L-glutamine, 1×PS and 2% (v/v) FBS, and maintained for an additional 2 d. Cells were then transferred to 100 ng/ml Noggin (R&D systems)+0.25 μM SANT-1 (Sigma)+2 μM retinoic acid (Sigma) in DMEM supplemented with 1×L-glutamine, 1×PS and 1×B27 (Invitrogen) and cultured for an 4 d, followed by treatment with 100 ng/ml Noggin (R&D systems)+1 μM ALK5 inhibitor (Enzo)+100 nM PDBu (Sigma) in DMEM supplemented with 1×L-glutamine, 1×PS and 1×B27 (Invitrogen) and cultured for an additional 4 d. All HUES-pancreatic progenitor cells were derived using the same protocol as described above. The percentage and number of PDX1^+ cells and NGN3^+ cells were analyzed with the Cellomics high content screening system (Thermo Scientific). PKCβ inhibitor was purchased from Calbiochem.
High-content screen 1. […]
Screen 1: Generation of efficacy curve. […] Six days later, the cells were stained with NGN3 antibody and the plates were analyzed with the Cellomics high content screening system (Thermo Scientific). […]

[2] = tested on: NGN3 mRNA (HUES 8-derived pancreatic progenitor cells); assay: qRT-PCR of NGN3 expression in chemically-treated populations; format: cell-based, human; conditions: quantitative RT-PCR, HUES 8-derived cells
Text: [drawing 11] was selected for follow up studies due to the high efficacy and low toxicity (FIG. 1C).

[3] = tested on: human c-peptide in serum of SCID-Beige mice; assay: Kidney capsule transplantation of treated cells, glucose-stimulated human c-peptide ELISA; format: in vivo; conditions: treated cells under kidney capsule of SCID-beige mice, 12 weeks, 30 mins after glucose
Text: FIGS. 2A-2B show the characterization of cells derived by PKC inhibitor treatment. […] Cells were stained with insulin, c-peptide, glucagon, UCN3, PDX1 and NKX6-1 antibodies. All insulin-expressing cells express c-peptide. Few insulin-expressing cells express NKX6-1 or UCN3, markers of mature human β cells. Many insulin-expressing cells co-express another endocrine marker glucagon. Scale bars are 100 μm. […] Scheme beginning with cells that have been treated with hit chemicals, e.g., PKC inhibitors, comprises a population containing many NGN3-expressing cells. The HUES 8-derived pancreatic progenitor cells treated with DMSO were used as negative controls. […] 12 weeks later, the mouse sera collected at fasting condition and at 30 mins after glucose stimulation were analyzed using ELISA to measure human c-peptide expression. […]
Kidney capsule implantation and tissue preparation. […] The c-peptide levels in mouse sera were measured using the human c-peptide ELISA kit (Alpco Diagnostics or Millipore).
The inventors next investigated the developmental potential of cell populations enriched for NGN3^+ cells that were induced by PKC inhibition. […] More c-peptide (a byproduct of insulin biosynthesis)-expressing cells were detected in the derivatives of PKCβ inhibitor treated cells (12.5 5.8%) than the derivatives of control cells (DMSO-treated, 1.2 1.2%; FIG. 2b). […]

pancreatic progenitors = conditions: previously reported, US2011/0070645; cited from earlier work

Row | Compound | percentage of NGN3+ cells, fold higher than the DMSO-treated controls ([1]; HUES 8, at maximum) [fold] | EC50 ([1]; Homo sapiens, 144 h, HUES 8-pancreatic progenitor population, six days, FIG. 1D, read-out: EC50, total number of NGN3+ cells) [µM] | toxicity in screen 1 ([1]; reason for selection for follow up) | expression of NGN3 mRNA compared to DMSO controls [2] | human c-peptide levels in the serum, glucose injection versus fasting [3] | generation of pancreatic progenitors (pancreatic progenitors)
1 | O=C1NC(=O)C(c2cn(CCCn3ccnc3)c3ccccc23)=C1Nc1ccccc1 [PKCβ inhibitor] | ~7 | 7.8 | low toxicity | higher expression of NGN3 mRNA | significantly higher upon glucose injection than during fasting | –
2 | (−)-Indolactam V | – | – | – | – | – | promotes the generation of pancreatic progenitors
